Assay results from the NIST ThermoML archive (doi:10.1016/j.jct.2015.07.028).

How the values were obtained:
[1] = for molar entropy: 101.33 kPa, Small (less than 1 g) adiabatic calorimetry; for vapor or sublimation pressure: Closed cell (Static) method; for Triple point temperature: Adiabatic calorimetry
[2] = Molar enthalpy of transition or fusion; settings: Adiabatic calorimetry

C=CC(C)(C)O [2-methyl-3-buten-2-ol]
[1]
Settings	molar entropy [J/K/mol]	vapor or sublimation pressure [kPa]
5 K, Crystal 2	0.1073	–
10 K, Crystal 2	0.901	–
15 K, Crystal 2	2.701	–
20 K, Crystal 2	5.385	–
25 K, Crystal 2	8.631	–
30 K, Crystal 2	12.21	–
35 K, Crystal 2	15.96	–
40 K, Crystal 2	19.77	–
45 K, Crystal 2	23.58	–
50 K, Crystal 2	27.38	–
60 K, Crystal 2	34.85	–
70 K, Crystal 2	42.16	–
80 K, Crystal 2	49.35	–
88.1 K, Crystal 1	57.03	–
88.1 K, Crystal 2	55.1	–
90 K, Crystal 1	58.35	–
100 K, Crystal 1	65.19	–
110 K, Crystal 1	71.91	–
120 K, Crystal 1	78.52	–
130 K, Crystal 1	85.1	–
140 K, Crystal 1	91.7	–
150 K, Crystal 1	98.37	–
160 K, Crystal 1	105.2	–
170 K, Crystal 1	112.2	–
180 K, Crystal 1	119.4	–
190 K, Crystal 1	126.8	–
200 K, Crystal 1	134.3	–
210 K, Crystal 1	141.9	–
220 K, Crystal 1	149.7	–
230 K, Crystal 1	157.5	–
240 K, Crystal 1	165.4	–
245.03 K, Crystal 1	169.4	–
245.03 K, Liquid	190.6	–
250 K, Liquid	194.6	–
260 K, Liquid	202.4	–
270 K, Liquid	210.3	–
273.15 K, Liquid	212.8	–
279.12 K, Liquid	–	0.7477
279.82 K, Liquid	–	0.7934
280 K, Liquid	218.2	–
280.58 K, Liquid	–	0.8399
280.94 K, Liquid	–	0.8608
281.64 K, Liquid	–	0.9104
283.31 K, Liquid	–	1.026
283.94 K, Liquid	–	1.075
285.82 K, Liquid	–	1.23
286.31 K, Liquid	–	1.271
288.03 K, Liquid	–	1.447
288.63 K, Liquid	–	1.504
290 K, Liquid	226.1	–
291.06 K, Liquid	–	1.787
291.09 K, Liquid	–	1.78
293.17 K, Liquid	–	2.061
293.35 K, Liquid	–	2.084
295.88 K, Liquid	–	2.467
295.92 K, Liquid	–	2.466
298.02 K, Liquid	–	2.863
298.15 K, Liquid	232.6	–
298.84 K, Liquid	–	2.995
300 K, Liquid	234.1	–
301.36 K, Liquid	–	3.534
301.37 K, Liquid	–	3.532
303.03 K, Liquid	–	3.938
303.4 K, Liquid	–	4.006
306.13 K, Liquid	–	4.784
306.16 K, Liquid	–	4.776
307.86 K, Liquid	–	5.284
308.18 K, Liquid	–	5.405
310 K, Liquid	242	–
311.01 K, Liquid	–	6.393
311.02 K, Liquid	–	6.405
312.7 K, Liquid	–	7.049
313.18 K, Liquid	–	7.252
313.25 K, Liquid	–	7.27
315.8 K, Liquid	–	8.467
315.81 K, Liquid	–	8.457
315.98 K, Liquid	–	8.484
318.16 K, Liquid	–	9.605
320 K, Liquid	250	–
320.59 K, Liquid	–	11.11
320.62 K, Liquid	–	11.02
320.82 K, Liquid	–	11.12
322.89 K, Liquid	–	12.51
322.94 K, Liquid	–	12.48
325.36 K, Liquid	–	14.31
325.39 K, Liquid	–	14.24
325.66 K, Liquid	–	14.41
328.07 K, Liquid	–	16.34
330 K, Liquid	257.9	–
340 K, Liquid	265.7	–
350 K, Liquid	273.5	–
360 K, Liquid	281.1	–
370 K, Liquid	288.5	–

Settings	Molar enthalpy of transition or fusion, [2] [kJ/mol]	Triple point temperature, [1] [K]
Crystal 1	5.199	245.03
Crystal 2	0.17	88.1
